The values below come from patent publication US5916906A, “Compositions comprising nicotinylalanine and an inhibitor of glycine conjugation or vitamin B6” (priority 1997, dated 1999).

Like-named read-outs stand apart in the source and are kept apart here.

For series [1] the following is noted: rats treated with nicotinylalanine (Decker); cited from earlier work.
Series [2] is described as follows: Behavioral toxicity, chronic i.p. dosing in mice. The conditions noted are these: chronic i.p. racemic NAL 400 mg/kg, more than four months. Type of series: in vivo, C57BL/6 mice. As for the experimental part: Results from studies in a mouse model of AIDS (i.e., the LP-BM5 strain of murine leukemia virus-induced murine acquired immunodeficiency syndrome, MAIDS) are consistent with efficacy of a parenteral dose in humans of nicotinylalanine (isomer) between about 100 and 200 mg/kg body weight per day in combination with aspirin at about 20 mg/kg per day. […] Connick J. H., et al., Gen. Pharmac., 23:235-239, 1992. […] Vague P., et al., Lancet, I:619-620, 1987. This is consistent with the lack of toxicity reported for NAm in other human studies. (Hoffer A., Schizophrenia, 1:78-87, 1969).

Series [3] is described as follows: Urinary N-methylnicotinamide in rats treated with nicotinylalanine (literature). As to conditions: following nicotinylalanine injection, inferred from urinary N-methylnicotinamide. Type of series: in vivo. The text has this: As discussed above, these benefits of nicotinylalanine treatment are applicable to other diseases besides neurodegeneration. R. H. Decker, et al. (ibid) reported a 4-5 fold increase in N-methylnicotinamide levels in the urine of rats treated with nicotinylalanine. Since N-methylnicotinamide is a major urinary excretion product of nicotinamide in the rat, increases in the endogenous levels of nicotinamide following nicotinylalanine injection are at least 5 fold.

Series [4] is described as follows: Plasma pharmacokinetics of nicotinylalanine after i.v., i.p. and oral administration. As to conditions: for bioavailability / half-life / Tmax: 400 mg/kg; for Tmax: read-out: Time of peak plasma level of NAL (converted); for k el: read-out: Ke (converted). Type of series: in vivo, C57BL/6 mice. As for the experimental part:
The purpose of this study was to determine the plasma pharmacokinetics of nicotinylalanine in fasted, female C57BL/6 mice after intravenous (i.v.), intraperitoneal (i.p.), and oral (p.o.) administration of equivalent doses of nicotinylalanine at 400 mg/kg body weight. The analytic methods used in these studies were the same as described in Example 1 and Table 1 for Metabolic Studies.
Bioavailability of nicotinylalanine after p.o. and i.p. administration was determined by comparison of the areas under the plasma time curves with the area under the plasma time curve for the i.v. administration of an equivalent dose at 400 mg/kg into the tail vein. Time points were evaluated from five minutes to 1,440 minutes (24 hours) after dosing, although the rapid pharmacokinetics under each dosing regimen focused the time parameters to less than six hours.
Although there are several compartmental analyses which could be used to model the pharmacokinetic data, for derivation of pharmacokinetic parameters a simple non-compartmental analysis was selected. The computer program used to generate the parameters (Table 5) and for fitting the curves (FIGS. 7, 8) was the Lagran Program using the Lagrange Function. See, Rocci M. L. and Jusko W. J. 1983, "Lagran Program for Area and Moments in Pharmacokinetic Analysis", Comp. Prog. Biomed. 16, 203-212; and Yeh K. C. and Quan K. C. 1978, "A Comparison of Numerical Integrating Algorithms by Trapezoidal Lagrange and Spline Approximations", J. Pharmacokinet. Biopharmacol. 6, 79-93.

The conditions of series [5]: acute 500 mg/kg racemic NAL (Connick 1992); cited from earlier work.
Series [6] in a line: Toxicity observations and necropsy in LP-BM5 infected mice. Type of series: in vivo, C57BL/6 mice. The protocol: Disease progression was monitored by measuring serum IgM levels by ELISA on all animals at monthly intervals during the course of disease. Three mice per group were randomly selected and sacrificed at monthly intervals (end of month one through four) of the study. Disease scores for each animal were recorded weekly based upon palpation of lymph nodes and spleen. Complete gross necropsies were performed on these euthanized animals and the ratio of recorded spleen to body weights was an additional indicator of diseases progression. […] Infection was quantified by ecotropic virus XC plaque assays of spleens removed from the interim sacrificed animals. The study was to be terminated when mice were either dead or disease scores were +4 in more than 50% of the vehicle-treated MAIDS controls (Group 1), which occurred at 19 weeks post-inoculation of the virus pool. However, as the remaining mice in Group 1 were slow to progress towards more severe disease (FIG. 5) or death (FIG. 6), the study was extended until a termination date of 28 weeks post-inoculation.

In series [7] the test system is LP-BM5 MuLV Retrovirus. The conditions noted are these: cited from earlier work.
The mark [8] stands for this setting: within the first month of dosing.

With `NC(CC(=O)c1cccnc1)C(=O)O` (racemic) [NAL, γ-(3-pyridyl)-γ-oxo-α-aminobutyrate], the “Increase in N-methylnicotinamide levels in urine” value in series [1] is on record as 4-5 fold. Further, the Behavioral toxicity entry in series [2] was “not been associated with obvious behavioral toxicity”. For the same compound, the “Increase in endogenous nicotinamide levels” value in series [3] is “at least 5 fold”. The CL in series [4] (NAL 400 mg/kg, i.p., fasted female mice) is reported as 31.6; in series [4] (NAL 400 mg/kg, p.o., fasted female mice), 50.2. Also, the “Volume of distribution (Vdss), in words” value in series [4] (especially in the oral dosage form) is “consistent with a compound well-distributed in aqueous compartments”. Also, the “Bioavailability i.p. versus i.v. or oral, in words” value in series [4] (i.p. compared to i.v. or oral) is recorded as “apparently greater however when the i.p. route is used”. Also, the bioavailability in series [4] (mouse, plasma, ip, NAL 400 mg/kg, i.p., fasted female mice, read-out: F (fraction bioavailable)) is 183%; in series [4] (mouse, plasma, po, NAL 400 mg/kg, p.o., fasted female mice, read-out: F (fraction bioavailable)), 105%; in series [4] (mouse, plasma, po, oral dose, read-out: fraction bioavailable (F)), approximately 100%. Further, the half-life in series [4] (mouse, plasma, ip, NAL 400 mg/kg, i.p., fasted female mice, read-out: t1/2) is 24.9 min; in series [4] (mouse, plasma, ip, i.p., read-out: t1/2 (half-life of plasma nicotinylalanine)), approximately 25 min; in series [4] (mouse, plasma, iv, NAL 400 mg/kg, i.v., fasted female mice, read-out: t1/2) it was 40.2 min; in series [4] (mouse, plasma, iv, i.v., read-out: t1/2 (half-life of plasma nicotinylalanine)), approximately 40 min; in series [4] (mouse, plasma, po, NAL 400 mg/kg, p.o., fasted female mice, read-out: t1/2) it was 58.7 min; in series [4] (mouse, plasma, po, oral, read-out: t1/2 (half-life of plasma nicotinylalanine)), approximately 60 min. For the same compound, the Tmax is approximately 5 min in series [4] (mouse, plasma, ip); approximately 5 min in series [4] (mouse, plasma, iv); approximately 10 min in series [4] (mouse, plasma, oral gavage). For the same compound, the k el in series [4] (mouse, plasma, ip, NAL 400 mg/kg, i.p., fasted female mice) was 0.000463 s⁻¹; in series [4] (mouse, plasma, iv, NAL 400 mg/kg, i.v., fasted female mice), 0.000287 s⁻¹; in series [4] (mouse, plasma, po, NAL 400 mg/kg, p.o., fasted female mice), 0.000197 s⁻¹. The Vd/F in series [4] (mouse, plasma, ip, NAL 400 mg/kg, i.p., fasted female mice, read-out: Vdss) worked out at 0.821 L/kg; in series [4] (mouse, plasma, po, NAL 400 mg/kg, p.o., fasted female mice, read-out: Vdss), 3.35 L/kg. This compound also yielded a clearance in series [4] (mouse, plasma, iv, NAL 400 mg/kg, fasted female mice) of 57.3 mL/min/kg. In addition, the Vd in series [4] (mouse, plasma, iv, NAL 400 mg/kg, i.v., fasted female mice, read-out: Vdss) amounted to 1.33 L/kg. Moreover, the “Nicotinamide plasma level versus control” value in series [4] (oral NAL 400 mg/kg, transient) is reported as “about twice control”. In addition, the “t1/2 oral versus i.p.” value in series [4] (oral compared with i.p. dose) is on record as “approximately twice as long”. Also, the “t1/2 oral versus i.v.” value in series [4] (oral compared with i.v. dose) is “approximately one and a half (11/2) times as long”. Further, in series [5], the Behavioral effects result is reported as “not to result in any behavioral effects”.
Regarding `Cc1cn([C@H]2C[C@H](N=[N+]=[N-])[C@@H](CO)O2)c(=O)[nH]c1=O` [AZT, 3'azido-3'deoxythymidine, reference compound], the “Deaths prior to termination of the study” value in series [6] (28-week study) is reported as “one mouse”. The “Necropsy finding in mice that died” value in series [6] (Groups 4 and 7) was “distended food filled small and large intestines”. In series [6] (setting [8]), the “Side-effect: melaninization” value is “melaninization of extremities, tail, and ears”; the “Side-effect: red-blood cell” value is “red-blood cell toxicities”. For the same compound, the “Disease progression (in words)” value in series [7] (AZT 0.1 mg/kg (Eiseman 1991)) is recorded as “still delayed disease progression”. For the same compound, the “Control of LP-BM5 disease (in words)” value in series [7] (AZT 0.5 mg/kg in drinking water, chronic (Eiseman 1991)) was “effective in controlling LP-BM5 disease”.
